Data on seven compounds can be found in US11274118B2 (priority 2012, dated 2022).

The nature of the series: physchem. The following applies: kinetic from dmso stock.

≈ marks a conversion by molar mass, not a printed value.

For orientation: solubility means the concentration that dissolves in the medium under given conditions. A high value points to a readily soluble substance. In the case of `CC(=O)O/N=C(\C)[C@H]1CC[C@H]2[C@@H]3CCC4=CC(=O)CC[C@]4(C)[C@H]3CC[C@]12C` [Compound 6, (8 S,9S,10R,13S,14S,17S)-17-((E)-1-(acetoxyimino)ethyl)-10,13-dimethyl-6,7,8,9,10,11,12,13,14,15,16,17-dodecahydro-1H-cyclopenta[a]phenanthren-3(2H)-one], the solubility at 90 min by setting is: (pH 4, aqueous buffer) 180 µM (≈ 66.9 µg/mL); (pH 7, aqueous buffer) 100 µM (≈ 37.2 µg/mL).
Take `C/C(=N\OC(=O)C[N+](C)(C)C)[C@H]1CC[C@H]2[C@@H]3CCC4=CC(=O)CC[C@]4(C)[C@H]3CC[C@]12C.[I-]` [Compound 11, (8S,9S,10R,13S,14S,17S)-17-((E)-1-(2-(triimethylamino)acetoxyimino)ethyl)-10,13-dimethyl-6,7,8,9,10,11,12,13,14,15,16,17-dodecahydro-1H-cyclopenta[a]phenanthren-3(2H)-one Iodide]: the solubility at 90 min is, setting by setting: (pH 4, aqueous buffer) above 540 µM; (pH 7, aqueous buffer) 45 µM.
Turning to `C/C(=N\OC(=O)CN1CCOCC1)[C@H]1CC[C@H]2[C@@H]3CCC4=CC(=O)CC[C@]4(C)[C@H]3CC[C@]12C` [Compound 12, (8S,9S,10R,13S,14S,17S)-10,13-Dimethyl-17-((E)-1-(2-morpholinoacetoxyimino)ethyl)-6,7,8,9,10,11,12,13,14,15,16,17-dodecahydro-1H-cyclopenta[a]phenanthren-3(2H)-one], the solubility at 90 min runs as follows: (pH 4, aqueous buffer) 215 µM (≈ 98.2 µg/mL); (pH 7, aqueous buffer) 215 µM (≈ 98.2 µg/mL).
Consider `C/C(=N\OC(=O)c1ccc(CN)cc1)[C@H]1CC[C@H]2[C@@H]3CCC4=CC(=O)CC[C@]4(C)[C@H]3CC[C@]12C.Cl` [Compound 16, (8S,9S,10R,13S,14S,17S)-17-((E)-1-(4-(aminomethyl)benzoyloxyimino)ethyl)-10,13-dimethyl-6,7,8,9,10,11,12,13,14,15,16,17-dodecahydro-1H-cyclopenta[a]phenanthren-3 (2H)-one], for which the solubility at 90 min was below 30 µM (pH 4, aqueous buffer) and below 30 µM (pH 7, aqueous buffer).
As for `C/C(=N\OC(=O)c1ccc(CN2CCN(C)CC2)cc1)[C@H]1CC[C@H]2[C@@H]3CCC4=CC(=O)CC[C@]4(C)[C@H]3CC[C@]12C` [Compound 17, (8S,9S,10R,13S,14S,17S)-10,13-dimethyl-17-((E)-1-(4-((4-methylpiperazin-1-yl)methyl)benzoyloxyimino)ethyl)-6,7,8,9,10,11,12,13,14,15,16,17-dodecahydro-1H-cyclopenta[a]phenanthren-3(2H)-one], the solubility at 90 min is, setting by setting: (pH 4, aqueous buffer) below 30 µM; (pH 7, aqueous buffer) below 30 µM.
Regarding `C/C(=N\OC(=O)C1CCN(C)CC1)[C@H]1CC[C@H]2[C@@H]3CCC4=CC(=O)CC[C@]4(C)[C@H]3CC[C@]12C` [Compound 19, (8S,9S,10R,13S,14S,17S)-10,13-Dimethyl-17-((E)-1-(1-methylpiperidine-4-carbonyloxyimino)ethyl)-6,7,8,9,10,11,12,13,14,15,16,17-dodecahydro-1H-cyclopenta[a]phenanthren-3(2H)-one], the solubility at 90 min by setting is: (pH 4, aqueous buffer) above 660 µM; (pH 7, aqueous buffer) 108 µM (≈ 49.1 µg/mL).
For `C/C(=N\OC(=O)[C@@H]1CCCNC1)[C@H]1CC[C@H]2[C@@H]3CCC4=CC(=O)CC[C@]4(C)[C@H]3CC[C@]12C.Cl` [Compound 21, (8S,9S,10R,13S,14S,17S)-10,13-dimethyl-17-((E)-1-((R)-piperidine-3-carbonyloxyimino)ethyl)-6,7,8,9,10,11,12,13,14,15,16,17-dodecahydro-1H-cyclopenta[a]phenanthren-3 (2H)-one hydrochloride], in that order: above 500 µM and 428 µM.
